# Laboratory results taken from patent publication US10639345B2, “Compositions for preserving photoreceptor cells, retinal pigment epithelial cells, or visual function” (Massachusetts Eye and Ear Infirmary, priority 2010, dated 2020).
# Where a SMILES comes first, the peptide text is derived from it. The star is where a group is joined. Cbz = O=C(OCc1ccccc1)*; CH2F = FC*
# Experiments:
# [1] = test system: carbonyl adducts of proteins; experiment: Protein carbonyl ELISA (oxidative retinal damage) after retinal detachment; assay type: in vivo; details: day three after retinal detachment, wild type
# Procedure: Recent studies reported that RIP kinases regulate downstream ROS production during programmed necrosis (Cho Y S et al. (2009) CELL 137:1112-1123; Zhang D W et al. (2009) SCIENCE 325:332-336; Kim et al. (2007) MOL CELL 26:675-687). ELISA for carbonyl adducts of proteins was used to examine oxidative retinal damage following retinal detachment. Specifically, the amounts of protein carbonyls were determined by using OxiSelect™ Protein Carbonyl ELISA Kit (Cell Biolabs, San Diego, Calif.).
# RIP-1 = molecular target: T1, RIP-1 (Rattus norvegicus, UniProt D3ZYL0); experiment: RIP-1 phosphorylation after retinal detachment (RIP-1 immunoprecipitation, anti-phosphoserine Western blot); assay type: in vivo; details: two days after retinal detachment; subretinal Z-VAD 300 μM and/or Nec-1 400 μM at detachment
# T1 construct: RIP-1 was immunoprecipitated from lysates of untreated retina and of retina treated with either vehicle, Nec-1, Z-VAD, or Nec-1+Z-VAD; from tissue; host or cells: retina (retinal lysates) of animals with experimental retinal detachment
# T1 sequence (D3ZYL0 1-658): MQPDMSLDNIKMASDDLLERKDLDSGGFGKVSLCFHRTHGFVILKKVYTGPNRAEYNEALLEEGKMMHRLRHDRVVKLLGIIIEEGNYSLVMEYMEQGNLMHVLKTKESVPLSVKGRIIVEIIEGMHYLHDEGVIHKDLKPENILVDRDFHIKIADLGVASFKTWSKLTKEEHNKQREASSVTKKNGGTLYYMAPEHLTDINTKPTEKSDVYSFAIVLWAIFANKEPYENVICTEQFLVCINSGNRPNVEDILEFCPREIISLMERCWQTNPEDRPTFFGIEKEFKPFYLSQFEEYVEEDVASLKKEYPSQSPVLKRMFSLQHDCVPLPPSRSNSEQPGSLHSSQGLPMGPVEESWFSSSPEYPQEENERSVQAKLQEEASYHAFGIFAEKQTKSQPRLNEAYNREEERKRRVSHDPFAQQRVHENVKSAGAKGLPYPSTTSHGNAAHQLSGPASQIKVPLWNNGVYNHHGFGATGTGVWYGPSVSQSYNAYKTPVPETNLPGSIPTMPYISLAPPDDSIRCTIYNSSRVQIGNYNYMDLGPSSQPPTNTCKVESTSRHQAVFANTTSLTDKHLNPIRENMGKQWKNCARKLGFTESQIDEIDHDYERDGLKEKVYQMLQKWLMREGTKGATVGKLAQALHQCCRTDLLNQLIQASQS
# Procedure: Equal amount of retinal lysates (1 mg) were incubated with 1 μg anti-RIP-1 antibody (BD Biosciences) and 20 μl of Protein A/G Agarose beads (Thermo Scientific, Rockford, Ill.) at 4° C. overnight. Beads were washed 5 times with lysis buffer and TBS, and the immunopellets were then subjected to Western blotting.
# RIP-1 is phosphorylated at several serine residues in its kinase domain during programmed necrosis and Nec-1 inhibits this phosphorylation (Degterev (2008) supra; Cho Y et al. (2009) Cell 137:1100-1111). To investigate the role of RIP-1 kinase in retinal detachment-induced photoreceptor death, the phosphorylation status of RIP-1 was first assessed by immunoprecipitating RIP-1 from the retina (FIG. 3A) and then blotting with an anti-phosphoserine antibody. RIP-1 was immunoprecipitated from retinal lysates. One mg of retinal lysates were incubated with anti-RIP-1 antibody and Protein A/G agarose beads. Extracts before (Pre) and after (Post) immunoprecipitation and the immunopellets (IP) were run on a 4-12% SDS-PAGE and blotted with anti-RIP-1 antibody. […]
# To determine the effect of Nec-1 and a pan-caspase inhibitor on the phosphorylation of RIP-1, Z-VAD (300 μM) and/or a Nec-1 compound of Formula I-C (400 μM) were injected subretinally in the animal at the time of retinal detachment induction. […] Phosphorylation of RIP-1 was then assessed by Western blot analysis. […]
# photoreceptors = experiment: TEM quantification of photoreceptor death after retinal detachment in WT mice; assay type: in vivo; details: day three after retinal detachment
# Procedure: TEM was performed as previously described (Hisatomi T et al. (2008). J. CLIN. INVEST. 118:2025-2038). […] Over 200 photoreceptors each eye were photographed and subjected to quantification of cell death modes in a masked fashion. Photoreceptors showing cellular shrinkage and nuclear condensation were defined as apoptotic cells, while photoreceptors associated with cellular and organelle swelling and discontinuities in nuclear and plasma membrane were defined as necrotic cells. The presence of electron-dense granular materials were reported to occur subsequent to both apoptotic and necrotic cell death and cells with these findings were labeled simply as end-stage cell death/unclassified (Hisatomi T et al. (2003) AM. J. PATHOL. 162:1869-1879; Erickson P A et al. (1983) INVEST. OPHTHALMOL. VIS. SCI. 24:927-942).
# The morphology of the RIP-3−/− retina after retinal detachment was also assessed by TEM. […] RIP-3 deficiency inhibits the switch to necrotic cell death by Z-VAD treatment and prevents photoreceptor death after retinal detachment. Scale bar, 5 μm.
# [2] = test system: CD11b-positive macrophage/microglia; experiment: CD11b-positive cell infiltration after retinal detachment in RIP-3−/− eyes; assay type: in vivo, RIP-3−/− mice
# Procedure: Immunofluorescence was performed as previously reported (Hisatomi et al. (2008) J CLIN INVEST 118:2025-2038. The enucleated eyes were frozen in OCT compound (Sakura Finetechnical Co., Tokyo, Japan). Five μm-thick sections were cut, air dried and fixed in cold acetone for 10 minutes. Rat anti-CD11b (1:50; BD Biosciences, San Diego, Calif.) was used as the primary antibody and incubated at 4° C. overnight. A nonimmune serum was used as a negative control. Alexa Fluor 594-conjugated goat anti-rat IgG (Invitrogen, Carlsbad, Calif.) was used as the secondary antibody and incubated at room temperature for one hour. The specimens were imaged by confocal microscopy using the Leica HCX APOL40× lens.
# Since the release of intracellular content in necrosis results in secondary inflammation, changes in the inflammatory response after retinal detachment were investigated by immunohistochemistry and immunofluorescence with an antibody against CD11b. FIG. 11A-B show IHC for CD11b (FIG. 11A) and quantification of CD11b-positive cells in control retina without retinal detachment and in retina treated with vehicle, Z-VAD or Z-VAD+Nec-1 (n=6 each) (FIG. 11B) at three days after retinal detachment. […]
# FIG. 11C-D show immunofluorescence for CD11b (FIG. 11C) and quantification of CD11b-positive macrophage/microglia (FIG. 11D) in WT and RIP-3−/− retina after retinal detachment.
smiles,measurement,setting,value
"COC(=O)CC(NC(=O)C(C)NC(=O)C(NC(=O)OCc1ccccc1)C(C)C)C(=O)CF (stereo not drawn) [Z-VAD, Benzyloxycarbonyl-Val-Ala-Asp(OMe)-fluoromethylketone] (Cbz-Val-Ala-Asp(OMe)-CH2F; configuration not given here)",carbonyl contents per mg protein,[1],significant increase of carbonyl contents
same,RIP-1 phosphorylation,RIP-1,elevated
same,% apoptotic cells (TEM),photoreceptors,13.3±1.5%
same,% necrotic cells (TEM),photoreceptors,22.1±1.0%
same,% unclassified (TEM),photoreceptors,1.0±0.6%
same,infiltration of CD11-b positive cells in the retina and subretinal space,[2],even less infiltration
